Several values for one entry are separate records, joined by “and”; a condition that tells them apart may be missing. Identical values can stand only once.
Experiments:
[1] = molecular target: EGFR ins SVD (insertion of SVD between D770 and N771) (Homo sapiens, UniProt P00533, INS767SVD); experiment: Exon 20-Mutant-EGFR(D770_N771insSVD) kinase assay (TR-FRET); type: biochemical; details: Table 9; read-out: mutEGFR (D770_N771insSVD) kinase assay IC50
Procedure: Exon 20-Mutant-EGFR(D770_N771insSVD) Kinase Assay
Inhibitory activity of compounds of the present invention against an Epidermal Growth Factor Receptor (EGFR) with an insertion of the amino acids sequence SVD between D770 and N771 was quantified employing the TR-FRET based kinase activity assay as described in the following paragraphs.
For the assay 50 nl of a 100-fold concentrated solution of the test compound in DMSO was pipetted into either a black low volume 384 well microtiter plate or a black 1536 well microtiter plate (both Greiner Bio-One, Frickenhausen, Germany), 2 μl of a solution of EGFR in aqueous assay buffer [50 mM Hepes pH 7.0, 10 mM MgCl2, 1 mM dithiothreitol, 0.5 mM EGTA, 0.3 mM activated sodium ortho-vanadate, 0.005% (w/v) bovine serum albumin, 0.005% (v/v) Tween-20] were added and the mixture was incubated for 15 min at 22° C. to allow pre binding of the test compounds to the enzyme before the start of the kinase reaction. […] The concentration of EGFR was adjusted depending of the activity of the enzyme lot and was chosen appropriate to have the assay in the linear range, typical concentration was 15 pg/μl. The reaction was stopped by the addition of 3 μl of a solution of HTRF detection reagents (83.3 nM streptavidine-XL665 [Cisbio Bioassays, Codolet, France] and 1.67 nM PT66-Tb-Cryptate, a terbium-cryptate labelled anti-phospho-tyrosine antibody from Cisbio Bioassays [instead of the PT66 Tb cryptate PT66 Eu Chelate from Perkin Elmer can also be used]) in an aqueous EDTA-solution (133.3 mM EDTA, 0.2% (w/v) bovine serum albumin in 50 mM HEPES pH 7.5).
The resulting mixture was incubated 1 h at 22° C. to allow the binding of the biotinylated phosphorylated peptide to the streptavidine-XL665 and the PT66-Tb-Cryptate. Subsequently the amount of phosphorylated substrate was evaluated by measurement of the resonance energy transfer from the PT66-Tb-Cryptate to the streptavidine-XL665.

Ba/F3-EGFR-insSVD cells = experiment: Proliferation assay in BA/F3 (ins SVD) cells (Cell Titer-Glo); type: cell-based
Procedure: (§1) Cellular Data Description (WT, insSVD, Ins ASV)
(§2) Plates were incubated at 37° C. for 48 h. Retrovirus was harvested by filtering the media supernatant through a 0.45 μm filter.
(§3) Ba/F3 cells purchased from DSMZ were grown in RPMI+10% FBS+10 ng/mL IL-3 and infected with filtered retroviral supernatant at a 1:2 dilution. Polybrene was added to a concentration of 8 μg/mL, plates were spun for 90 min, and incubated overnight at 37° C. 2 μg/mL puromycin was added to the infected cells 24 h after infection and cells were continually grown in the presence of puromycin and 10 ng/mL IL-3. Following stably expressing Ba/F3 cell lines were generated: Ba/F3-EGFR-WT, Ba/F3-EGFR-insSVD.
(§4) The cells ectopically expressing WT EGFR were plated with 10 ng/mL Millipore Culture grade EGF. The cells ectopically expressing EGFR-insSVD were plated without EGF.
(§5) 100 nL of compound was added to each well using a 100 nL pin head, and plates were incubated at 37° C. for 48 h.
(§6) Cell viability was measured by adding 30 μL of Cell Titer-Glo Luminescent Cell Viability Reagent. Plates were sealed with Perkin Elmer Top-Seal, inverted several times to mix, and immediately centrifuged at 1000 rpm for 2 min. Plates were incubated in low light conditions for 8-10 min and luminescence was measured.

Ba/F3-EGFR-WT cells = experiment: Proliferation assay in BA/F3 (wild type) cells (Cell Titer-Glo); type: cell-based; details: Mus musculus
Procedure: as §1, §2, §3, §4, §5, §6

[2] = Mus musculus, BaF3, 48 h, Table 10, plated without EGF
[3] = BaF3, 48 h, Table 10, plated with 10 ng/mL EGF
[4] = Mus musculus, BaF3, Table 10, plated without EGF, 48 h

EGFR ins SVD (insertion of SVD between D770 and N771), sequence (P00533 with tags, fused parts or gaps INS767SVD limits assumed): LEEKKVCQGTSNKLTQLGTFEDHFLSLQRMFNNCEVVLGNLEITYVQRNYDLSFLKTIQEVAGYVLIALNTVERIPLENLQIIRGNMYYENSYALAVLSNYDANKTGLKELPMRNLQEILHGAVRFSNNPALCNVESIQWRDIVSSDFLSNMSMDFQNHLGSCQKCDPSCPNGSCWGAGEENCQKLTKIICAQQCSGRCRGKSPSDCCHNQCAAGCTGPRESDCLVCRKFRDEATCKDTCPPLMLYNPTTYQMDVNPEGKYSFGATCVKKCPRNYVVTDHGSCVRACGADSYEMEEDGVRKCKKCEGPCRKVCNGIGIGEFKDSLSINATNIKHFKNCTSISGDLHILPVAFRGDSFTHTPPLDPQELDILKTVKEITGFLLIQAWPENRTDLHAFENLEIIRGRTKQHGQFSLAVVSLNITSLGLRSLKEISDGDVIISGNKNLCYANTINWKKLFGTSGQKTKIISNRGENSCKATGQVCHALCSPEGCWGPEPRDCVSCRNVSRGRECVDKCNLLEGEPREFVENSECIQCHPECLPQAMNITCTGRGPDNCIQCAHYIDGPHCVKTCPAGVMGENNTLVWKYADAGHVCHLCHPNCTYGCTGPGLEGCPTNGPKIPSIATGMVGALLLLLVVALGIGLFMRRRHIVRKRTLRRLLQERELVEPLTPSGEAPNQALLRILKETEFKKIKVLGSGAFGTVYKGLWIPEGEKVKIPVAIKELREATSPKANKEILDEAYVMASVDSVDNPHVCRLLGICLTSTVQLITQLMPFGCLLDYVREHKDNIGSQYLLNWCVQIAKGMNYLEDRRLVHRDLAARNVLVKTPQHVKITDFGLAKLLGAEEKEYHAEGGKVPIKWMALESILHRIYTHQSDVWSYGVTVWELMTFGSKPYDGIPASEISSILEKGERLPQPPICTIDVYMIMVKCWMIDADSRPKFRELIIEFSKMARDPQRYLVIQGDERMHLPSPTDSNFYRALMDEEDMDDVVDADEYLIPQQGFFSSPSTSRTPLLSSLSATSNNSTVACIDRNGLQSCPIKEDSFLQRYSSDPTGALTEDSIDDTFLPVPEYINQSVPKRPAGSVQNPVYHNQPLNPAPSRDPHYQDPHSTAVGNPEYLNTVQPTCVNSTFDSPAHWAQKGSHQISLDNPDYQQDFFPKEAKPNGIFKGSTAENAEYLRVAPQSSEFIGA

`COc1c(F)cccc1Nc1c(-c2ccncc2OCC2CCCO2)[nH]c2c1C(=O)NCC2` (stereo not shown) [Example 86, 3-(3-fluoro-2-methoxyanilino)-2-{3-[(oxolan-2-yl)methoxy]pyridin-4-yl}-1,5,6,7-tetrahydro-4H-pyrrolo[3,2-c]pyridin-4-one] gave an IC50 [1] of 0.122 nM, an IC50 (Ba/F3-EGFR-insSVD cells; [2]) of 12.8 nM and an IC50 (Ba/F3-EGFR-WT cells; [3]) of 377 nM.

For `COc1c(F)cccc1Nc1c(-c2ccncc2OCC(C)(C)N(C)C)[nH]c2c1C(=O)NCC2` [Example 74, 2-{3-[2-(dimethylamino)-2-methylpropoxy]pyridin-4-yl}-3-(3-fluoro-2-methoxyanilino)-1,5,6,7-tetrahydro-4H-pyrrolo[3,2-c]pyridin-4-one], the IC50 [1] was 0.865 nM, the IC50 (Ba/F3-EGFR-insSVD cells; [2]) was 97.9 nM and the IC50 (Ba/F3-EGFR-WT cells; [3]) was 4070 nM.

Work on `CC(C)(COc1cnccc1-c1[nH]c2c(c1Nc1cccc(F)c1OC(F)F)C(=O)NCC2)N1CCOCC1` [Example 76, 3-[2-(difluoromethoxy)-3-fluoroanilino]-2-{3-[2-methyl-2-(morpholin-4-yl)propoxy]pyridin-4-yl}-1,5,6,7-tetrahydro-4H-pyrrolo[3,2-c]pyridin-4-one] yielded an IC50 [1] of 0.845 nM, an IC50 (Ba/F3-EGFR-insSVD cells; [4]) of 250 nM and an IC50 (Ba/F3-EGFR-WT cells; BaF3, Table 10, plated with 10 ng/mL EGF, 48 h) of 2090 nM.

`Cc1c(F)cc(F)cc1Nc1c(-c2ccncc2OCCN(C)C)[nH]c2c1C(=O)NCC2` [Example 55, 3-(3,5-difluoro-2-methylanilino)-2-{3-[2-(dimethylamino)ethoxy]pyridin-4-yl}-1,5,6,7-tetrahydro-4H-pyrrolo[3,2-c]pyridin-4-one] showed an IC50 [1] of 0.465 nM, an IC50 (Ba/F3-EGFR-insSVD cells; [2]) of 303 nM and an IC50 (Ba/F3-EGFR-WT cells; [3]) of 2830 nM.

Work on `COCCOc1cnccc1-c1[nH]c2c(c1Nc1cccc(Cl)c1Cl)C(=O)NCC2` [Example 46, 3-(2,3-dichloroanilino)-2-[3-(2-methoxyethoxy)pyridin-4-yl]-1,5,6,7-tetrahydro-4H-pyrrolo[3,2-c]pyridin-4-one] yielded an IC50 [1] of 0.0912 nM, an IC50 (Ba/F3-EGFR-insSVD cells; [2]) of 15.1 nM and an IC50 (Ba/F3-EGFR-WT cells; [3]) of 364 nM.

In the case of `COC(C)(C)COc1cnccc1-c1[nH]c2c(c1Nc1cccc(F)c1C#N)C(=O)NCC2` [Example 94, 2-fluoro-6-({2-[3-(2-methoxy-2-methylpropoxy)pyridin-4-yl]-4-oxo-4,5,6,7-tetrahydro-1H-pyrrolo[3,2-c]pyridin-3-yl}amino)benzonitrile], the IC50 [1] is reported as 0.228 nM, the IC50 (Ba/F3-EGFR-insSVD cells; [2]) is reported as 54.9 nM and the IC50 (Ba/F3-EGFR-WT cells; [3]) is reported as 4620 nM.

With `Cc1c(Cl)cccc1Nc1c(-c2ccncc2OCC(C)(C)N(C)C)[nH]c2c1C(=O)NCC2` [Example 60, 3-(3-chloro-2-methylanilino)-2-{3-[2-(dimethylamino)-2-methylpropoxy]pyridin-4-yl}-1,5,6,7-tetrahydro-4H-pyrrolo[3,2-c]pyridin-4-one] the IC50 [1] was 0.695 nM, the IC50 (Ba/F3-EGFR-insSVD cells; [2]) was 38.6 nM and the IC50 (Ba/F3-EGFR-WT cells; [3]) was 1750 nM.

`COc1c(F)cccc1Nc1c(-c2ccncc2OC(C)Cc2ccccc2)[nH]c2c1C(=O)NCC2` (stereo not shown) [Example 93, 3-(3-fluoro-2-methoxyanilino)-2-{3-[(1-phenylpropan-2-yl)oxy]pyridin-4-yl}-1,5,6,7-tetrahydro-4H-pyrrolo[3,2-c]pyridin-4-one] was tested, and the IC50 [1] was 0.277 nM, the IC50 (Ba/F3-EGFR-insSVD cells; [2]) was 468 nM and the IC50 (Ba/F3-EGFR-WT cells; [3]) was 3680 nM.

In the case of `CN1CCC[C@H]1COc1cnccc1-c1[nH]c2c(c1Nc1cccc(Cl)c1Cl)C(=O)NCC2` [Example 71, 3-(2,3-dichloroanilino)-2-(3-{[(2S)-1-methylpyrrolidin-2-yl]methoxy}pyridin-4-yl)-1,5,6,7-tetrahydro-4H-pyrrolo[3,2-c]pyridin-4-one], the IC50 [1] is reported as 0.258 nM, the IC50 (Ba/F3-EGFR-insSVD cells; [2]) is reported as 20.2 nM and the IC50 (Ba/F3-EGFR-WT cells; [3]) is reported as 781 nM.

For `COC(C)(C)COc1cnccc1-c1[nH]c2c(c1Nc1cccc(F)c1C(F)(F)F)C(=O)NCC2` [Example 41, 3-[3-fluoro-2-(trifluoromethyl)anilino]-2-[3-(2-methoxy-2-methylpropoxy)pyridin-4-yl]-1,5,6,7-tetrahydro-4H-pyrrolo[3,2-c]pyridin-4-one], the IC50 [1] was 0.124 nM, the IC50 (Ba/F3-EGFR-insSVD cells; [2]) was 52.5 nM and the IC50 (Ba/F3-EGFR-WT cells; [3]) was 795 nM.

`COC(C)(C)COc1cnccc1-c1[nH]c2c(c1Nc1cccc(Cl)c1C)C(=O)NCC2` [Example 36, 3-(3-chloro-2-methylanilino)-2-[3-(2-methoxy-2-methylpropoxy)pyridin-4-yl]-1,5,6,7-tetrahydro-4H-pyrrolo[3,2-c]pyridin-4-one] gave an IC50 [1] of 0.194 nM, an IC50 (Ba/F3-EGFR-insSVD cells; [2]) of 9.55 nM and an IC50 (Ba/F3-EGFR-WT cells; [3]) of 529 nM.

`COc1c(F)cccc1Nc1c(-c2ccncc2OCCN(C)C)[nH]c2c1C(=O)NCC2` [Example 53, 2-{3-[2-(dimethylamino)ethoxy]pyridin-4-yl}-3-(3-fluoro-2-methoxyanilino)-1,5,6,7-tetrahydro-4H-pyrrolo[3,2-c]pyridin-4-one] gave an IC50 [1] of 0.332 nM, an IC50 (Ba/F3-EGFR-insSVD cells; [2]) of 31.1 nM and an IC50 (Ba/F3-EGFR-WT cells; [3]) of 804 nM.

Work on `COc1c(F)cccc1Nc1c(-c2ccncc2OCC2CCCCN2C)[nH]c2c1C(=O)NCC2` (stereo not shown) [Example 90, 3-(3-fluoro-2-methoxyanilino)-2-(3-{[1-methylpiperidin-2-yl]methoxy}pyridin-4-yl)-1,5,6,7-tetrahydro-4H-pyrrolo[3,2-c]pyridin-4-one] yielded an IC50 [1] of 0.69 nM, an IC50 (Ba/F3-EGFR-insSVD cells; [2]) of 29 nM and an IC50 (Ba/F3-EGFR-WT cells; [3]) of 2660 nM.

For `COC(C)(C)COc1cnccc1-c1[nH]c2c(c1Nc1cccc(F)c1C)C(=O)NCC2` [Example 21, 3-[(3-fluoro-2-methylphenyl)amino]-2-[3-(2-methoxy-2-methylpropoxy)pyridin-4-yl]-1,5,6,7-tetrahydro-4H-pyrrolo[3,2-c]pyridin-4-one], the IC50 (Ba/F3-EGFR-insSVD cells; [2]) was 8.81 nM, the IC50 (Ba/F3-EGFR-insSVD cells; Table 10, plated without EGF, 48 h) was 7.48 nM and < 4.78 nM and 6.8 nM and 7.49 nM and the IC50 (Ba/F3-EGFR-WT cells; [3]) was 251 nM.

For `Cc1c(F)cccc1Nc1c(-c2ccncc2OCCN(C)C)[nH]c2c1C(=O)NCC2` [Example 56, 2-{3-[2-(dimethylamino)ethoxy]pyridin-4-yl}-3-(3-fluoro-2-methylanilino)-1,5,6,7-tetrahydro-4H-pyrrolo[3,2-c]pyridin-4-one], the IC50 [1] was 0.562 nM, the IC50 (Ba/F3-EGFR-insSVD cells; [2]) was 242 nM and the IC50 (Ba/F3-EGFR-WT cells; [3]) was 1900 nM.

Work on `CCc1c(F)cccc1Nc1c(-c2ccncc2OCC(C)(C)OC)[nH]c2c1C(=O)NCC2` [Example 35, 3-(2-ethyl-3-fluoroanilino)-2-[3-(2-methoxy-2-methylpropoxy)pyridin-4-yl]-1,5,6,7-tetrahydro-4H-pyrrolo[3,2-c]pyridin-4-one] yielded an IC50 [1] of 0.185 nM, an IC50 (Ba/F3-EGFR-insSVD cells; [2]) of 7.98 nM and an IC50 (Ba/F3-EGFR-WT cells; [3]) of 428 nM.

In the case of `CN1CCC[C@H]1COc1cnccc1-c1[nH]c2c(c1Nc1cccc(Cl)c1OC(F)F)C(=O)NCC2` [Example 50, 3-[3-chloro-2-(difluoromethoxy)anilino]-2-(3-{[(2S)-1-methylpyrrolidin-2-yl]methoxy}pyridin-4-yl)-1,5,6,7-tetrahydro-4H-pyrrolo[3,2-c]pyridin-4-one], the IC50 [1] is reported as 1.26 nM, the IC50 (Ba/F3-EGFR-insSVD cells; [2]) is reported as 60.9 nM and the IC50 (Ba/F3-EGFR-WT cells; [3]) is reported as 2100 nM.

`COc1c(Cl)cccc1Nc1c(-c2ccncc2OCCOC(C)(C)C)[nH]c2c1C(=O)NCC2` [Example 87, 2-[3-(2-tert-butoxyethoxy)pyridin-4-yl]-3-(3-chloro-2-methoxyanilino)-1,5,6,7-tetrahydro-4H-pyrrolo[3,2-c]pyridin-4-one] showed an IC50 [1] of 0.204 nM, an IC50 (Ba/F3-EGFR-insSVD cells; [2]) of 34.4 nM and an IC50 (Ba/F3-EGFR-WT cells; [3]) of 1060 nM.

In the case of `COCCOc1cnccc1-c1[nH]c2c(c1Nc1ccccc1C(F)(F)F)C(=O)NCC2` [Example 47, 2-[3-(2-methoxyethoxy)pyridin-4-yl]-3-[2-(trifluoromethyl)anilino]-1,5,6,7-tetrahydro-4H-pyrrolo[3,2-c]pyridin-4-one], the IC50 [1] is reported as 0.169 nM, the IC50 (Ba/F3-EGFR-insSVD cells; [2]) is reported as 448 nM and the IC50 (Ba/F3-EGFR-WT cells; [3]) is reported as 3240 nM.

For `COc1c(Cl)cccc1Nc1c(-c2ccncc2OC[C@@H]2CCCN2CC(F)(F)F)[nH]c2c1C(=O)NCC2` [Example 95, 3-(3-chloro-2-methoxyanilino)-2-(3-{[(2S)-1-(2,2,2-trifluoroethyl)pyrrolidin-2-yl]methoxy}pyridin-4-yl)-1,5,6,7-tetrahydro-4H-pyrrolo[3,2-c]pyridin-4-one], the IC50 [1] was 0.187 nM, the IC50 (Ba/F3-EGFR-insSVD cells; [2]) was 141 nM and the IC50 (Ba/F3-EGFR-WT cells; [3]) was 2370 nM.

For `COc1c(Cl)cccc1Nc1c(-c2ccncc2OCCN(C)C)[nH]c2c1C(=O)NCC2` [Example 54, 3-(3-chloro-2-methoxyanilino)-2-{3-[2-(dimethylamino)ethoxy]pyridin-4-yl}-1,5,6,7-tetrahydro-4H-pyrrolo[3,2-c]pyridin-4-one], the IC50 [1] was 0.912 nM, the IC50 (Ba/F3-EGFR-insSVD cells; [2]) was 37.5 nM and the IC50 (Ba/F3-EGFR-WT cells; [3]) was 1300 nM.

With `COc1c(Cl)cccc1Nc1c(-c2ccncc2OC[C@H]2CCCO2)[nH]c2c1C(=O)NCC2` [Example 67, 3-(3-chloro-2-methoxyanilino)-2-(3-{[(2R)-oxolan-2-yl]methoxy}pyridin-4-1)-1,5,6,7-tetrahydro-4H-pyrrolo[3,2-c]pyridin-4-one] the IC50 [1] was 0.0908 nM and the IC50 (Ba/F3-EGFR-insSVD cells; [4]) was 9.33 nM.

Work on `COc1c(Cl)cccc1Nc1c(-c2ccncc2OC[C@@H]2CCCO2)[nH]c2c1C(=O)NCC2` [Example 66, 3-(3-chloro-2-methoxyanilino)-2-(3-{[(2S)-oxolan-2-yl]methoxy}pyridin-4-yl)-1,5,6,7-tetrahydro-4H-pyrrolo[3,2-c]pyridin-4-one] yielded an IC50 [1] of 0.0932 nM and an IC50 (Ba/F3-EGFR-insSVD cells; [4]) of 4.6 nM.

Source: US11339157B1, “4H-pyrrolo[3,2-c]pyridin-4-one derivatives” (Bayer Aktiengesellschaft, priority 2017, dated 2022)
